Experimental data published in PubChem BioAssay (NCI).
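All cell lines were grown in 96-well plates and treated with compound for 48 hours. Definition used: TGI = concentration required for complete inhibition of growth.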

What was measured:
Assay in all cases: inhibition of tumour cell growth, NCI panel, 48 h
UACC-257 melanoma = test system: UACC-257 melanoma
HCT-116 colon = test system: HCT-116 colon
HL-60(TB) leukemia = test system: HL-60(TB) leukemia
SN12C renal = test system: SN12C renal
MDA-N = test system: MDA-N
SK-MEL-5 melanoma = test system: SK-MEL-5 melanoma
MOLT-4 leukemia = test system: MOLT-4 leukemia
M19-MEL melanoma = test system: M19-MEL melanoma
ACHN renal = test system: ACHN renal
DU-145 prostate = test system: DU-145 prostate
OVCAR-3 ovarian = test system: OVCAR-3 ovarian
HCC-2998 colon = test system: HCC-2998 colon
NCI/ADR-RES ovarian = test system: NCI/ADR-RES ovarian
SK-OV-3 ovarian = test system: SK-OV-3 ovarian
HOP-92 NSCLC = test system: HOP-92 NSCLC
CAKI-1 renal = test system: CAKI-1 renal
MDA-MB-435 = test system: MDA-MB-435
PC-3 prostate = test system: PC-3 prostate
EKVX NSCLC = test system: EKVX NSCLC
A549 NSCLC = test system: A549 NSCLC
U251 CNS = test system: U251 CNS
HT29 colon = test system: HT29 colon
M14 melanoma = test system: M14 melanoma
HOP-18 NSCLC = test system: HOP-18 NSCLC
K-562 leukemia = test system: K-562 leukemia
NCI-H226 lung = test system: NCI-H226 lung
UACC-62 melanoma = test system: UACC-62 melanoma
SW-620 colon = test system: SW-620 colon
XF 498 CNS = test system: XF 498 CNS
LXFL 529 NSCLC = test system: LXFL 529 NSCLC
SK-MEL-28 melanoma = test system: SK-MEL-28 melanoma
CCRF-CEM leukemia = test system: CCRF-CEM leukemia
SF-295 CNS = test system: SF-295 CNS
HOP-62 NSCLC = test system: HOP-62 NSCLC
NCI-H460 lung = test system: NCI-H460 lung
OVCAR-4 ovarian = test system: OVCAR-4 ovarian
COLO 205 colon = test system: COLO 205 colon
786-0 renal = test system: 786-0 renal
OVCAR-8 ovarian = test system: OVCAR-8 ovarian
SNB-75 CNS = test system: SNB-75 CNS
HS 578T breast = test system: HS 578T breast
T-47D breast = test system: T-47D breast
NCI-H522 lung = test system: NCI-H522 lung
SK-MEL-2 melanoma = test system: SK-MEL-2 melanoma
IGROV1 ovarian = test system: IGROV1 ovarian
A498 renal = test system: A498 renal
BT-549 breast = test system: BT-549 breast
SNB-78 CNS = test system: SNB-78 CNS
TK-10 renal = test system: TK-10 renal
SF-268 CNS = test system: SF-268 CNS
SR leukemia = test system: SR leukemia
DLD-1 colon = test system: DLD-1 colon
SF-539 CNS = test system: SF-539 CNS
NCI-H23 lung = test system: NCI-H23 lung
DMS 273 small cell lung = test system: DMS 273 small cell lung
OVCAR-5 ovarian = test system: OVCAR-5 ovarian
LOX IMVI melanoma = test system: LOX IMVI melanoma
KM20L2 colon = test system: KM20L2 colon
RXF 393 renal = test system: RXF 393 renal
MCF7 breast = test system: MCF7 breast
KM12 colon = test system: KM12 colon
MDA-MB-231 breast = test system: MDA-MB-231 breast
HCT-15 colon = test system: HCT-15 colon
UO-31 renal = test system: UO-31 renal
DMS 114 small cell lung = test system: DMS 114 small cell lung
MALME-3M melanoma = test system: MALME-3M melanoma
SNB-19 CNS = test system: SNB-19 CNS
RPMI-8226 leukemia = test system: RPMI-8226 leukemia
RXF-631 renal = test system: RXF-631 renal

COc1cc2c3c(c1OC)-c1cc4c(cc1CC3(C#N)N(C(=O)c1ccccc1)CC2)OCO4 (centres undefined)
TGI (UACC-257 melanoma): > 100 µM
TGI (HCT-116 colon): > 87.2 µM
TGI (HL-60(TB) leukemia): > 100 µM
TGI (SN12C renal): > 100 µM
TGI (MDA-N): > 100 µM
TGI (SK-MEL-5 melanoma): > 100 µM
TGI (MOLT-4 leukemia): > 100 µM
TGI (M19-MEL melanoma): > 100 µM
TGI (ACHN renal): > 97.2 µM
TGI (DU-145 prostate): > 100 µM
TGI (OVCAR-3 ovarian): > 86.6 µM
TGI (HCC-2998 colon): > 100 µM
TGI (NCI/ADR-RES ovarian): > 100 µM
TGI (SK-OV-3 ovarian): 44.4 µM
TGI (HOP-92 NSCLC): 32.5 µM
TGI (CAKI-1 renal): > 81 µM
TGI (MDA-MB-435): > 100 µM
TGI (PC-3 prostate): > 100 µM
TGI (EKVX NSCLC): > 100 µM
TGI (A549 NSCLC): > 100 µM
TGI (U251 CNS): 53.5 µM
TGI (HT29 colon): > 100 µM
TGI (M14 melanoma): > 100 µM
TGI (HOP-18 NSCLC): 93.2 µM
TGI (K-562 leukemia): > 100 µM
TGI (NCI-H226 lung): 78.2 µM
TGI (UACC-62 melanoma): 43.2 µM
TGI (SW-620 colon): > 100 µM
TGI (XF 498 CNS): 24.8 µM
TGI (LXFL 529 NSCLC): 56.3 µM
TGI (SK-MEL-28 melanoma): > 100 µM
TGI (CCRF-CEM leukemia): > 100 µM
TGI (SF-295 CNS): 58.7 µM
TGI (HOP-62 NSCLC): > 76.1 µM
TGI (NCI-H460 lung): > 100 µM
TGI (OVCAR-4 ovarian): 43 µM
TGI (COLO 205 colon): > 100 µM
TGI (786-0 renal): 57.7 µM
TGI (OVCAR-8 ovarian): > 74.2 µM
TGI (SNB-75 CNS): 28.1 µM
TGI (HS 578T breast): 82 µM
TGI (T-47D breast): > 100 µM
TGI (NCI-H522 lung): 81.2 µM
TGI (SK-MEL-2 melanoma): > 100 µM
TGI (IGROV1 ovarian): > 82.3 µM
TGI (A498 renal): 82.3 µM
TGI (BT-549 breast): > 100 µM
TGI (SNB-78 CNS): 42.6 µM
TGI (TK-10 renal): 71 µM
TGI (SF-268 CNS): > 91 µM
TGI (SR leukemia): > 100 µM
TGI (DLD-1 colon): > 100 µM
TGI (SF-539 CNS): 54.7 µM
TGI (NCI-H23 lung): 54.1 µM
TGI (DMS 273 small cell lung): > 79.4 µM
TGI (OVCAR-5 ovarian): > 56.2 µM
TGI (LOX IMVI melanoma): > 93.6 µM
TGI (KM20L2 colon): > 100 µM
TGI (RXF 393 renal): 26.9 µM
TGI (MCF7 breast): > 100 µM
TGI (KM12 colon): > 100 µM
TGI (MDA-MB-231 breast): > 100 µM
TGI (HCT-15 colon): > 100 µM
TGI (UO-31 renal): > 94.1 µM
TGI (DMS 114 small cell lung): > 85.1 µM
TGI (MALME-3M melanoma): 97.7 µM
TGI (SNB-19 CNS): 46 µM
TGI (RPMI-8226 leukemia): > 100 µM

Cc1ccc(NC(=O)CCc2nnc(N)o2)cc1
TGI (UACC-257 melanoma): > 100 µM
TGI (HCT-116 colon): > 100 µM
TGI (HL-60(TB) leukemia): > 91.7 µM
TGI (SN12C renal): > 100 µM
TGI (SK-MEL-5 melanoma): > 100 µM
TGI (MOLT-4 leukemia): > 100 µM
TGI (M19-MEL melanoma): > 100 µM
TGI (ACHN renal): > 100 µM
TGI (OVCAR-3 ovarian): > 100 µM
TGI (HCC-2998 colon): > 100 µM
TGI (SK-OV-3 ovarian): > 100 µM
TGI (HOP-92 NSCLC): > 100 µM
TGI (CAKI-1 renal): > 100 µM
TGI (EKVX NSCLC): > 100 µM
TGI (A549 NSCLC): > 100 µM
TGI (U251 CNS): > 100 µM
TGI (HT29 colon): > 100 µM
TGI (M14 melanoma): > 100 µM
TGI (K-562 leukemia): > 100 µM
TGI (NCI-H226 lung): > 100 µM
TGI (UACC-62 melanoma): > 100 µM
TGI (SW-620 colon): > 100 µM
TGI (XF 498 CNS): > 100 µM
TGI (LXFL 529 NSCLC): > 100 µM
TGI (SK-MEL-28 melanoma): > 100 µM
TGI (RXF-631 renal): > 31.6 µM
TGI (CCRF-CEM leukemia): > 100 µM
TGI (SF-295 CNS): > 100 µM
TGI (HOP-62 NSCLC): > 100 µM
TGI (NCI-H460 lung): > 100 µM
TGI (OVCAR-4 ovarian): > 100 µM
TGI (COLO 205 colon): > 100 µM
TGI (786-0 renal): > 100 µM
TGI (OVCAR-8 ovarian): > 100 µM
TGI (SNB-75 CNS): > 100 µM
TGI (NCI-H522 lung): > 100 µM
TGI (SK-MEL-2 melanoma): > 100 µM
TGI (IGROV1 ovarian): > 100 µM
TGI (A498 renal): > 100 µM
TGI (SNB-78 CNS): > 100 µM
TGI (TK-10 renal): > 100 µM
TGI (SF-268 CNS): > 100 µM
TGI (DLD-1 colon): > 100 µM
TGI (SF-539 CNS): > 100 µM
TGI (NCI-H23 lung): > 100 µM
TGI (DMS 273 small cell lung): > 100 µM
TGI (OVCAR-5 ovarian): > 100 µM
TGI (LOX IMVI melanoma): > 100 µM
TGI (KM20L2 colon): > 100 µM
TGI (RXF 393 renal): > 100 µM
TGI (KM12 colon): > 100 µM
TGI (HCT-15 colon): > 100 µM
TGI (UO-31 renal): > 100 µM
TGI (DMS 114 small cell lung): > 100 µM
TGI (MALME-3M melanoma): > 100 µM
TGI (SNB-19 CNS): > 100 µM
TGI (RPMI-8226 leukemia): > 100 µM

Cn1cnnc1Sc1c([N+](=O)[O-])ncn1C
TGI (UACC-257 melanoma): > 100 µM
TGI (HCT-116 colon): > 100 µM
TGI (SN12C renal): > 100 µM
TGI (SK-MEL-5 melanoma): > 100 µM
TGI (MOLT-4 leukemia): > 100 µM
TGI (ACHN renal): > 100 µM
TGI (OVCAR-3 ovarian): > 100 µM
TGI (HCC-2998 colon): > 100 µM
TGI (SK-OV-3 ovarian): > 100 µM
TGI (HOP-92 NSCLC): 91.2 µM
TGI (CAKI-1 renal): > 100 µM
TGI (EKVX NSCLC): > 100 µM
TGI (A549 NSCLC): > 100 µM
TGI (U251 CNS): > 100 µM
TGI (HT29 colon): > 100 µM
TGI (M14 melanoma): > 100 µM
TGI (HOP-18 NSCLC): 82.5 µM
TGI (K-562 leukemia): > 100 µM
TGI (NCI-H226 lung): > 100 µM
TGI (UACC-62 melanoma): > 100 µM
TGI (SW-620 colon): > 100 µM
TGI (XF 498 CNS): > 100 µM
TGI (LXFL 529 NSCLC): 63 µM
TGI (SK-MEL-28 melanoma): > 100 µM
TGI (RXF-631 renal): > 100 µM
TGI (CCRF-CEM leukemia): > 100 µM
TGI (SF-295 CNS): > 100 µM
TGI (HOP-62 NSCLC): > 100 µM
TGI (NCI-H460 lung): > 100 µM
TGI (OVCAR-4 ovarian): > 100 µM
TGI (COLO 205 colon): > 100 µM
TGI (786-0 renal): > 100 µM
TGI (OVCAR-8 ovarian): > 100 µM
TGI (SNB-75 CNS): > 100 µM
TGI (NCI-H522 lung): 25.6 µM
TGI (SK-MEL-2 melanoma): > 100 µM
TGI (IGROV1 ovarian): > 100 µM
TGI (A498 renal): > 100 µM
TGI (SNB-78 CNS): > 100 µM
TGI (TK-10 renal): > 100 µM
TGI (SF-268 CNS): > 100 µM
TGI (SR leukemia): > 100 µM
TGI (DLD-1 colon): > 100 µM
TGI (SF-539 CNS): > 100 µM
TGI (NCI-H23 lung): > 100 µM
TGI (DMS 273 small cell lung): > 100 µM
TGI (OVCAR-5 ovarian): > 100 µM
TGI (LOX IMVI melanoma): > 100 µM
TGI (KM12 colon): > 100 µM
TGI (UO-31 renal): > 100 µM
TGI (DMS 114 small cell lung): > 100 µM
TGI (MALME-3M melanoma): 46.1 µM
TGI (SNB-19 CNS): > 100 µM
TGI (RPMI-8226 leukemia): > 100 µM
